Data taken from ChEMBL document CHEMBL1201862, “PubChem BioAssay data set” (2004).
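Briefly, cells in 96-well plates were exposed to five compound concentrations for 48 h, and endpoints were estimated by linear interpolation. GI50 marks 50% less growth.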 The source made the active and inactive calls. No stated cut-off is given here; in the data, active = GI50 up to about 1.1 µM and inactive = higher.

Legend:
Test in all cases: NCI anticancer screen, dose series, 48 h
[1] = system: MDA-MB-231
[2] = system: HT-29
[3] = system: SR
[4] = system: DU-145
[5] = system: A498
[6] = system: SW-620
[7] = system: OVCAR-5
[8] = system: MCF7
[9] = system: RXF 393
[10] = system: HCT-15
[11] = system: PC-3
[12] = system: TK-10
[13] = system: UO-31
[14] = system: SNB-19
[15] = system: Hs-578T
[16] = system: KM12
[17] = system: COLO 205
[18] = system: NCI-H226
[19] = system: SK-MEL-28
[20] = system: K562

Compound	GI50 [1]	GI50 [2]	GI50 [3]	GI50 [4]	GI50 [5]	GI50 [6]	GI50 [7]	GI50 [8]	GI50 [9]	GI50 [10] [µM]	GI50 [11]	GI50 [12]	GI50 [13]	GI50 [14]	GI50 [15]	GI50 [16]	GI50 [17]	GI50 [18]	GI50 [19]	GI50 [20]
CCCCCCC1OC23OC1CCC2C(O)CCC3O (stereo not given)	> 100 µM (inactive)	> 100 µM (inactive)	> 100 µM (inactive)	> 100 µM (inactive)	> 100 µM (inactive)	> 100 µM (inactive)	> 100 µM (inactive)	> 100 µM (inactive)	> 100 µM (inactive)	> 100	> 100 µM (inactive)	> 100 µM (inactive)	> 100 µM (inactive)	> 100 µM (inactive)	> 100 µM (inactive)	> 100 µM (inactive)	> 100 µM (inactive)	> 100 µM (inactive)	> 100 µM (inactive)	> 100 µM (inactive)
Cc1coc2c1C(=O)C(=O)c1c-2ccc2c1CCCC2(C)C [TANSHINONE IIA]	21.8 µM (inactive)	10.5 µM (inactive)	0.757 µM (active)	2.52 µM (inactive)	7.74 µM (inactive)	2.42 µM (inactive)	9.42 µM (inactive)	2.18 µM (inactive)	5.12 µM (inactive)	0.673	2.34 µM (inactive)	21.6 µM (inactive)	2.33 µM (inactive)	2.52 µM (inactive)	3.73 µM (inactive)	3.76 µM (inactive)	8.07 µM (inactive)	2.29 µM (inactive)	2.15 µM (inactive)	0.875 µM (active)
C[N+]1([O-])C2CCC1CC(OC(=O)C(CO)c1ccccc1)C2 (stereo not given)	> 100 µM (inactive)	> 100 µM (inactive)	> 36.6 µM (inactive)	> 100 µM (inactive)	> 100 µM (inactive)	> 100 µM (inactive)	> 100 µM (inactive)	> 100 µM (inactive)	> 100 µM (inactive)	> 55.8	> 100 µM (inactive)	> 100 µM (inactive)	> 100 µM (inactive)	> 100 µM (inactive)	> 100 µM (inactive)	> 100 µM (inactive)	> 100 µM (inactive)	> 100 µM (inactive)	> 100 µM (inactive)	> 100 µM (inactive)
N=C(N)SC(c1ccccc1)c1ccccc1	15.2 µM (inactive)	13.3 µM (inactive)	24 µM (inactive)	12.2 µM (inactive)	17.3 µM (inactive)	16.8 µM (inactive)	14.2 µM (inactive)	15.4 µM (inactive)	6.52 µM (inactive)	16.4	14.3 µM (inactive)	14.5 µM (inactive)	11.2 µM (inactive)	28.1 µM (inactive)	27.1 µM (inactive)	16.2 µM (inactive)	21.8 µM (inactive)	33.8 µM (inactive)	4.84 µM (inactive)	22.4 µM (inactive)
CC(C)C1=CC23CCC4C(C)(C(=O)O)CCCC4(C)C2CC1C1C(=O)N(c2ccccc2N2C(=O)C4C5CC6C7(C)CCCC(C)(C(=O)O)C7CCC6(C=C5C(C)C)C4C2=O)C(=O)C13 (stereo not given)	11.6 µM (inactive)	3.32 µM (inactive)	3.89 µM (inactive)	9.4 µM (inactive)	2.93 µM (inactive)	12.6 µM (inactive)	12.2 µM (inactive)	3.66 µM (inactive)	11.3 µM (inactive)	14.3	3.23 µM (inactive)	13.1 µM (inactive)	18.2 µM (inactive)	4.79 µM (inactive)	9.55 µM (inactive)	3.09 µM (inactive)	4.57 µM (inactive)	12.1 µM (inactive)	7.89 µM (inactive)	6.58 µM (inactive)
COc1ccc(/C=C\c2cc(OC)c(OC)c(OC)c2)cc1OC(=O)CC(N)C(=O)O (stereo not given)	0.00119 µM (active)	0.865 µM (active)	0.00577 µM (active)	0.00293 µM (active)	0.00269 µM (active)	0.00135 µM (active)	0.327 µM (active)	0.00733 µM (active)	0.00166 µM (active)	0.00258	0.000776 µM (active)	0.519 µM (active)	0.00759 µM (active)	0.0118 µM (active)	0.000426 µM (active)	0.00365 µM (active)	0.635 µM (active)	0.054 µM (active)	0.000597 µM (active)	0.000321 µM (active)
c1ccc2c(c1)ccc1cc3cc(NCCCCNc4ccc5nc6c(ccc7ccccc76)cc5c4)ccc3nc12	0.154 µM (active)	2.61 µM (inactive)	0.0179 µM (active)	1.29 µM (inactive)	1.17 µM (inactive)	0.195 µM (active)	0.261 µM (active)	0.262 µM (active)	1.58 µM (inactive)	0.701	1.31 µM (inactive)	1.64 µM (inactive)	1.21 µM (inactive)	0.352 µM (active)	1.96 µM (inactive)	0.236 µM (active)	1.69 µM (inactive)	1.73 µM (inactive)	2.1 µM (inactive)	1.63 µM (inactive)
O=C1OCC(c2ccc(Cl)cc2)=C1Cl	33.3 µM (inactive)	44.7 µM (inactive)	16.7 µM (inactive)	49.5 µM (inactive)	82 µM (inactive)	25.4 µM (inactive)	22.3 µM (inactive)	17.5 µM (inactive)	25.1 µM (inactive)	29.9	22.1 µM (inactive)	28.3 µM (inactive)	18.1 µM (inactive)	> 100 µM (inactive)	45.8 µM (inactive)	15.4 µM (inactive)	24.4 µM (inactive)	55.8 µM (inactive)	49.9 µM (inactive)	28.2 µM (inactive)
Cc1ncc([N+](=O)[O-])n1CCN(C)CCCCn1ccnc1[N+](=O)[O-]	> 100 µM (inactive)	> 100 µM (inactive)	> 100 µM (inactive)	> 100 µM (inactive)	> 100 µM (inactive)	> 100 µM (inactive)	> 100 µM (inactive)	> 100 µM (inactive)	> 100 µM (inactive)	> 100	> 100 µM (inactive)	> 100 µM (inactive)	> 100 µM (inactive)	> 100 µM (inactive)	> 100 µM (inactive)	> 100 µM (inactive)	> 100 µM (inactive)	> 100 µM (inactive)	> 100 µM (inactive)	> 100 µM (inactive)
CCn1c(SCC(=O)NNC(=S)Nc2ccc(F)cc2)nc2ccccc2c1=O	> 100 µM (inactive)	> 100 µM (inactive)	49.4 µM (inactive)	> 100 µM (inactive)	> 100 µM (inactive)	> 100 µM (inactive)	> 100 µM (inactive)	> 100 µM (inactive)	> 100 µM (inactive)	74.6	66.1 µM (inactive)	> 100 µM (inactive)	17.9 µM (inactive)	> 100 µM (inactive)	> 100 µM (inactive)	> 100 µM (inactive)	> 100 µM (inactive)	> 100 µM (inactive)	> 100 µM (inactive)	74.5 µM (inactive)
COc1ccc(Cl)cc1NC(=O)c1cccc([N+](=O)[O-])c1O	24.8 µM (inactive)	19.8 µM (inactive)	17.5 µM (inactive)	23.7 µM (inactive)	5.7 µM (inactive)	22.7 µM (inactive)	27.8 µM (inactive)	20.9 µM (inactive)	12 µM (inactive)	21.8	9.14 µM (inactive)	32.9 µM (inactive)	7.35 µM (inactive)	8.97 µM (inactive)	17.5 µM (inactive)	19.5 µM (inactive)	13.5 µM (inactive)	15 µM (inactive)	11.7 µM (inactive)	32.1 µM (inactive)
C[C@]12CC[C@@H]3c4ccc(OC(=O)c5ccccc5)cc4CC[C@H]3[C@@H]1CCC2OC(=O)c1cccc2c(=O)c3ccccc3[nH]c12 (stereo not given in full)	20.8 µM (inactive)	7.21 µM (inactive)	25.8 µM (inactive)	19.8 µM (inactive)	26 µM (inactive)	12.1 µM (inactive)	18.2 µM (inactive)	12.2 µM (inactive)	14.4 µM (inactive)	13.1	13.4 µM (inactive)	19.1 µM (inactive)	27.6 µM (inactive)	27.4 µM (inactive)	18.1 µM (inactive)	15.4 µM (inactive)	16.9 µM (inactive)	17.9 µM (inactive)	15.8 µM (inactive)	60 µM (inactive)
N[C@H](C(=O)O)[C@@H]1CC(Br)=NO1	> 100 µM (inactive)	10.1 µM (inactive)	3.66 µM (inactive)	5.57 µM (inactive)	18.1 µM (inactive)	5.87 µM (inactive)	16.8 µM (inactive)	3.42 µM (inactive)	11.9 µM (inactive)	6.38	23.6 µM (inactive)	16 µM (inactive)	6.46 µM (inactive)	36.4 µM (inactive)	8.95 µM (inactive)	10.6 µM (inactive)	33.3 µM (inactive)	> 96.6 µM (inactive)	32.7 µM (inactive)	20.6 µM (inactive)
